Assay results reported in ChEMBL document CHEMBL1201862, “PubChem BioAssay data set” (2004).
Calls of active or inactive are those of the source.

Tests used:
[1] = biological target: Voltage-dependent T-type calcium channel subunit alpha-1H (Homo sapiens, UniProt O95180); type: functional;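 also: channel activity triggered by adding a high calcium stimulation buffer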
[2] = biological target: T1, Eukaryotic translation initiation factor 2-alpha kinase 3 (Homo sapiens, UniProt Q9NZJ5); test: Dose response cell-based high-throughput screening assay to measure PERK inhibition. [Related pubchem assays: 1416 ]; type: functional
T1 sequence (Q9NZJ5 whole entry): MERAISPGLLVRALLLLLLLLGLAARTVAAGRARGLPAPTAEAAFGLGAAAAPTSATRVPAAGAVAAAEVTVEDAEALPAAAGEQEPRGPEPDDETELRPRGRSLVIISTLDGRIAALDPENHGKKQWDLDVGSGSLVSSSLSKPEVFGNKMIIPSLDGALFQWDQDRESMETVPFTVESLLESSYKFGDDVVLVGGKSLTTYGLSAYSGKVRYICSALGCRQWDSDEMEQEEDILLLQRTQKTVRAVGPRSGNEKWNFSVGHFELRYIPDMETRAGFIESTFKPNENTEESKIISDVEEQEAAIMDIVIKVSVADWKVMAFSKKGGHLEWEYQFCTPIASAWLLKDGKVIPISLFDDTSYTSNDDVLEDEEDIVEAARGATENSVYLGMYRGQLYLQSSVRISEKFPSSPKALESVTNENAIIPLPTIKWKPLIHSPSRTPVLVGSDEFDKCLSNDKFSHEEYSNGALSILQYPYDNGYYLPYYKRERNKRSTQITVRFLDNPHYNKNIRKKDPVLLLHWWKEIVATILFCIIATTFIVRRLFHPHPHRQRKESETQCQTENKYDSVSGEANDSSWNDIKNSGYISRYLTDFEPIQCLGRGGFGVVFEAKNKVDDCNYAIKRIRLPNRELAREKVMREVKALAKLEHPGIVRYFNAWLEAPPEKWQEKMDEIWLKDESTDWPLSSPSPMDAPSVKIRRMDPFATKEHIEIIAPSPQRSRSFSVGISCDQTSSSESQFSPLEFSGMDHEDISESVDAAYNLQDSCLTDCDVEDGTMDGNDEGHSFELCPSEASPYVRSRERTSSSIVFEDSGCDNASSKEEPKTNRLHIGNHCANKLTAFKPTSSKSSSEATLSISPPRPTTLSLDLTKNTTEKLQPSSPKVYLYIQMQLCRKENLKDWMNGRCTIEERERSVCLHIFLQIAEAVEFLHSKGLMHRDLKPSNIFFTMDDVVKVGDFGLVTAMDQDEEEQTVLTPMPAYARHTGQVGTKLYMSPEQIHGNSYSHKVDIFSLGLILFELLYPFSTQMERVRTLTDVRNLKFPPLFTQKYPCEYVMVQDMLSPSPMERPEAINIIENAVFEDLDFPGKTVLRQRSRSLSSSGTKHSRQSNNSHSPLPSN

[3] = biological target: T1, Eukaryotic translation initiation factor 2-alpha kinase 3; test: Counterscreen assay for PERK inhibitors: Dose response cell-based high throughput screening assay to measure inhibition of PERK at 6 hours. [Related pubchem assays: 1522, 1416 ]; type: functional
[4] = HEK-293T cell viability reduction – luminescence, B-cell screen hits, cytotoxicity control for BCR NF-kB inhibitor project, dose response (AID 489021); type: functional, cell-based;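 also: HEK-293T cells carrying an NF-kB luciferase reporter; cells exposed to compound for about 14 hours before viability readout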
[5] = MIN6 cell viability loss – mouse insulinoma, cytotoxicity control, dose response (AID 2122); type: functional;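 also: confirmatory high-throughput counterscreen run to flag cytotoxic compounds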
[6] = decrease of insulin promoter-GFP reporter – imaging, high-content screening, mouse beta cells (AID 1628); type: functional; conditions: MIN6
[7] = Luminescence Cell-Based Dose Retest to Confirm Inhibitors of Cancer Stem Cells. [Related pubchem assays (depositor defined):AID2717, AID2721]; type: functional; conditions: Homo sapiens
[8] = biological target: T2, Scavenger receptor class B member 1 (Mus musculus, UniProt Q61009); test: mouse SR-BI DiI-HDL uptake blockers – ldlA[mSR-BI] cells, fluorescence, cherry pick, dose response (AID 493194); type: functional, cell-based;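 also: cellular uptake of fluorescent DiI-labeled HDL measured as cell fluorescence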
T2 sequence (Q61009 whole entry): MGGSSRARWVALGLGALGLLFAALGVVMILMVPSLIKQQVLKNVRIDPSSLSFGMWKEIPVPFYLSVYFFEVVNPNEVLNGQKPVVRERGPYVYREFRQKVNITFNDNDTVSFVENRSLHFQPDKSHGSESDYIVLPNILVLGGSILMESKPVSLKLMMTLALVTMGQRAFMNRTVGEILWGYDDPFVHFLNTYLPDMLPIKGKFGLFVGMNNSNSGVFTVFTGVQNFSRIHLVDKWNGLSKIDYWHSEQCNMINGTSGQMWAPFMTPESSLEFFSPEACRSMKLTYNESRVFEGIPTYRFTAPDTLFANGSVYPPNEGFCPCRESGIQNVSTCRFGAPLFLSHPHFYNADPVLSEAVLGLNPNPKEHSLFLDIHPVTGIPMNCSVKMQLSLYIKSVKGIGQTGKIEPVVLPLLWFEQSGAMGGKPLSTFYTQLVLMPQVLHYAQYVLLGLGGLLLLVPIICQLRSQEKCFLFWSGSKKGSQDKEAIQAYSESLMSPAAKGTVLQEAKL

[9] = biological target: Eukaryotic translation initiation factor 4H (Homo sapiens, UniProt Q15056); test: eIF4H binding inhibition – biochemical, uHTS, fluorescence polarization, translation initiation inhibitor project, primary screen (AID 2012)
[10] = biological target: Polyadenylate-binding protein 1 (Homo sapiens, UniProt P11940); test: blockers of PABP interaction with poly(A) – biochemical, fluorescence polarization, […] (AID 2014)
Polyadenylate-binding protein 1, sequence (P11940 whole entry): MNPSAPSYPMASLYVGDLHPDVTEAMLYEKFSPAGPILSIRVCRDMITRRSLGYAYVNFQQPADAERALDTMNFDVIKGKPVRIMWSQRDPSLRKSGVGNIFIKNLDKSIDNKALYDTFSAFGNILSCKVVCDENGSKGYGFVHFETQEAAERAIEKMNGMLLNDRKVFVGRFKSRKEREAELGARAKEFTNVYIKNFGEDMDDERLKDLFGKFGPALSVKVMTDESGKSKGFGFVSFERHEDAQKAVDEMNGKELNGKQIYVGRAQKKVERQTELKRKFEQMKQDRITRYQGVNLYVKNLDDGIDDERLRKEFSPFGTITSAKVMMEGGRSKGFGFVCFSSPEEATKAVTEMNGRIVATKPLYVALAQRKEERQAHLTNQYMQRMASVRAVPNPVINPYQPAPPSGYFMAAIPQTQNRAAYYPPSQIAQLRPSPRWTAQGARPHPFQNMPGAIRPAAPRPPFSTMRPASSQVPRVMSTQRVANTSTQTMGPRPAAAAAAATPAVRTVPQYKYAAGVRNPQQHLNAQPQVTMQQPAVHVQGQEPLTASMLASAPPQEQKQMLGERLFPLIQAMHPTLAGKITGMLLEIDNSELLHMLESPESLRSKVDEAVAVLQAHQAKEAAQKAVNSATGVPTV

Hexokinase HKDC1 = biological target: T3, Hexokinase HKDC1 (Homo sapiens, UniProt Q2TB90); test: inhibition of HKDC1 glucose phosphorylation – biochemical, W721R variant, dose response (AID 504729); type: functional
T3 sequence (Q2TB90 whole entry): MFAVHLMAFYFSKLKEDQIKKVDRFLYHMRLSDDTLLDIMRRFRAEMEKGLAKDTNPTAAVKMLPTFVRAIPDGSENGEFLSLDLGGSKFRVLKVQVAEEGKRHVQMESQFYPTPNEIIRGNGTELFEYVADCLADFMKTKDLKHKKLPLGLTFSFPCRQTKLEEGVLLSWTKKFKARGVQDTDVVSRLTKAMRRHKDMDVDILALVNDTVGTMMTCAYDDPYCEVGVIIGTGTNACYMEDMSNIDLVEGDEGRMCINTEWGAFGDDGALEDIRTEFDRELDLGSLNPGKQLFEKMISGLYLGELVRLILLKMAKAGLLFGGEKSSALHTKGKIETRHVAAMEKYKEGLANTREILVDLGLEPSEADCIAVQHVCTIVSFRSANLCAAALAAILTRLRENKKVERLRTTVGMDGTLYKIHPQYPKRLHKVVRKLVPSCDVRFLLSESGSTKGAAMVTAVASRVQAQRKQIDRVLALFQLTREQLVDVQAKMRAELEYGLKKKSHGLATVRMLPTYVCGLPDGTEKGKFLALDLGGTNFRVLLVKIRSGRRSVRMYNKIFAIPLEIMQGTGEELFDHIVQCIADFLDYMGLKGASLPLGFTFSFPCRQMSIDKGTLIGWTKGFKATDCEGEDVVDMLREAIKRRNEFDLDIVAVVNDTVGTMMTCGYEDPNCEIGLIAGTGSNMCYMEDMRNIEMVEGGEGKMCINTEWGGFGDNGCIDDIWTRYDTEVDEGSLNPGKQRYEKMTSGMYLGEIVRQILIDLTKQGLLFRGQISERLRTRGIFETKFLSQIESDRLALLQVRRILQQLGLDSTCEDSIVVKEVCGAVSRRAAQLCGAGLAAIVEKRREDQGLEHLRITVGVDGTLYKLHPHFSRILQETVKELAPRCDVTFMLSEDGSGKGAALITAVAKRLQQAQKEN

[11] = biological target: T4, Calpain-2 catalytic subunit (Sus scrofa, UniProt P43367); test: m-calpain protease blockers, concentration series – biochemical, fluorogenic peptide substrate, dose response (AID 1420); type: functional
T4 sequence (P43367 whole entry): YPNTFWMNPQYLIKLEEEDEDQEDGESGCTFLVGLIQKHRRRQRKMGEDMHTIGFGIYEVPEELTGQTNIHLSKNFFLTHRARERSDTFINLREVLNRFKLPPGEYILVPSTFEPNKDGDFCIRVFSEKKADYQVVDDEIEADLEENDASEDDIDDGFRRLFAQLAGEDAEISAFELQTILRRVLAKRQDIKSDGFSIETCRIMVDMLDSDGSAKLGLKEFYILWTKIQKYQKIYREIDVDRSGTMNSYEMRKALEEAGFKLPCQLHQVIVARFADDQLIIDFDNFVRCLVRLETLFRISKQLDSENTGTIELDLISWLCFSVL

[12] = biological target: DNA dC->dU-editing enzyme APOBEC-3A (Homo sapiens, UniProt P31941); test: Dose Response confirmation of small molecule APOBEC3A DNA Deaminase Inhibitors via a fluorescence-based single-stranded DNA deaminase assay. [Related pubchem assays (depositor defined):AID493011, AID493024]; type: functional
DNA dC->dU-editing enzyme APOBEC-3A, sequence (P31941 whole entry): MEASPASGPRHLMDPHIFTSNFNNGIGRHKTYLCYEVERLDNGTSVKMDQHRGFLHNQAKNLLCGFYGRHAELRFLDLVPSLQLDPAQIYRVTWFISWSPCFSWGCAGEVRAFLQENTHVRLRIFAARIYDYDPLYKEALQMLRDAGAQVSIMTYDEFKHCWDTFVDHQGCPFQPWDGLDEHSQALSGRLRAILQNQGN

[13] = biological target: DNA dC->dU-editing enzyme APOBEC-3G (Homo sapiens, UniProt Q9HC16); type: functional;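 also: Dose-response counterscreen measuring inhibition of APOBEC3G DNA deaminase activity, run while confirming APOBEC3A inhibitors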
DNA dC->dU-editing enzyme APOBEC-3G, sequence (Q9HC16 whole entry): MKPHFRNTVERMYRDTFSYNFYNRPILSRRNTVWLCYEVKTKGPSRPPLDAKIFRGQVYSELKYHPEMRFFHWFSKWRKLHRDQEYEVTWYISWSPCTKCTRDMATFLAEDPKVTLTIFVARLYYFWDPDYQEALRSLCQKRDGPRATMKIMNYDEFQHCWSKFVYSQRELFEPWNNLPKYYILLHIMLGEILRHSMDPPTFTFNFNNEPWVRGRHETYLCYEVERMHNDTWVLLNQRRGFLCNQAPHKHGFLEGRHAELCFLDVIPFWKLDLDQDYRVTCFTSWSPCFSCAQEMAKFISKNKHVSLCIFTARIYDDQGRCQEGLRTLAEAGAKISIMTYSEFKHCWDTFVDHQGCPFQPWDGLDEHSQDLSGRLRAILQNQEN

Voltage-dependent T-type calcium channel subunit alpha-1H, sequence (O95180 whole entry): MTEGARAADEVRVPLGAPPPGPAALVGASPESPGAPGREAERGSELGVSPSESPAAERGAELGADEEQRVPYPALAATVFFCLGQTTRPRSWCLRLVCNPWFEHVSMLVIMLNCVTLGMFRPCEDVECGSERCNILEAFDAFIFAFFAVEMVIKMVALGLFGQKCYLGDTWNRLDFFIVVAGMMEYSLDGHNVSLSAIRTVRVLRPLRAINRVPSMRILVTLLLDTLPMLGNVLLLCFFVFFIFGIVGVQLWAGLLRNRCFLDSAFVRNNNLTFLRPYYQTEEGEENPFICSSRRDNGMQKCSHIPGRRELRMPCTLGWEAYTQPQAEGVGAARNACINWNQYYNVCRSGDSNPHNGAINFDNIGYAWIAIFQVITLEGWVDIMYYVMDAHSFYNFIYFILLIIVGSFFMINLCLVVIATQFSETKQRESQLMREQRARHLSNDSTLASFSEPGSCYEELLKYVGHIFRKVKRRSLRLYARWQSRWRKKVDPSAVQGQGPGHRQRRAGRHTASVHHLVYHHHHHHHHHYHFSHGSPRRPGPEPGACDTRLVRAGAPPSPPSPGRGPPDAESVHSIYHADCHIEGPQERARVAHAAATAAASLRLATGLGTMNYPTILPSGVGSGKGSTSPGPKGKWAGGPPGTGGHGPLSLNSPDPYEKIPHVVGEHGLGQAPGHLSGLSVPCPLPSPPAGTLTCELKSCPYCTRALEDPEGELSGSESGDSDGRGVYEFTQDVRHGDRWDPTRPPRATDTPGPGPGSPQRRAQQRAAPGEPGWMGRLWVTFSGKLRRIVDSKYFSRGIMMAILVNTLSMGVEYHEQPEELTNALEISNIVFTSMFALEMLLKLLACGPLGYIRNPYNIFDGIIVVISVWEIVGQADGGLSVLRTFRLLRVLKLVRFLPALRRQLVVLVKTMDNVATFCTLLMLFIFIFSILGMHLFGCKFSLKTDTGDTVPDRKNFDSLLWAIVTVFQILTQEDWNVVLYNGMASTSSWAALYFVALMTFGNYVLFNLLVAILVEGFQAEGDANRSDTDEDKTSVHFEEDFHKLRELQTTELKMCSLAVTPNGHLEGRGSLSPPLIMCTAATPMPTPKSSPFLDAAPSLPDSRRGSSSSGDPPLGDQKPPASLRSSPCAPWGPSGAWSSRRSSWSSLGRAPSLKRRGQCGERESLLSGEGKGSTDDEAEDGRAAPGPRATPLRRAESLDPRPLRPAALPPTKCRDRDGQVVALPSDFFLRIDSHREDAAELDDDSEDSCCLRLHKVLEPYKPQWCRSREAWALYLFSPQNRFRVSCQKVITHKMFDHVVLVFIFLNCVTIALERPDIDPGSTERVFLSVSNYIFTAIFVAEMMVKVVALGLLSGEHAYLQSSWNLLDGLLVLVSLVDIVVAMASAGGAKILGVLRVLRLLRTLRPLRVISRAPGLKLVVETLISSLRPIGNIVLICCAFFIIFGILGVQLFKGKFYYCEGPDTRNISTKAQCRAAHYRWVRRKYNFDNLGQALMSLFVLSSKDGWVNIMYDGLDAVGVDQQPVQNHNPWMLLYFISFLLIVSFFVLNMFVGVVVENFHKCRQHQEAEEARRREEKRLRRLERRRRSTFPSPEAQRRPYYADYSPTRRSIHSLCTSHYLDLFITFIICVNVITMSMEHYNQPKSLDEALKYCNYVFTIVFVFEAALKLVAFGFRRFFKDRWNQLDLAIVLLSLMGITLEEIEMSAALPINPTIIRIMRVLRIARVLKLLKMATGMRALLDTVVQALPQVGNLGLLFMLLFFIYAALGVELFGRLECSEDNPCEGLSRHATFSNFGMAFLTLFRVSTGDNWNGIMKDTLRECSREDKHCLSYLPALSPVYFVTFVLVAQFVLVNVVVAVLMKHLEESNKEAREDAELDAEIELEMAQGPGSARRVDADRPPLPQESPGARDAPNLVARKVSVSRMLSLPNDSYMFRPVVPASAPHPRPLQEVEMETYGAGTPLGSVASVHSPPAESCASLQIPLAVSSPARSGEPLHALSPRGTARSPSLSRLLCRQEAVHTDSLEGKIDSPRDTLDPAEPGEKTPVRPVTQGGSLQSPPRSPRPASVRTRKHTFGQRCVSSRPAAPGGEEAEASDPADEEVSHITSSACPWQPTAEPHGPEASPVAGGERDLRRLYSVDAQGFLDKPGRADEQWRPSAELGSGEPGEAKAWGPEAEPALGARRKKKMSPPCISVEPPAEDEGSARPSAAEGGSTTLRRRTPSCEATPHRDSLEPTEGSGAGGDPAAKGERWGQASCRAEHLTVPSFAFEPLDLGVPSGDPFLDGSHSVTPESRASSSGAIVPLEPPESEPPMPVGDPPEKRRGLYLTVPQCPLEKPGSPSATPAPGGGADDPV

Cc1ccccc1OCC(=O)N(Cc1nc(-c2ccccc2)no1)C(C)C
EC50 [1]: 5.63 µM (active)

COc1ccc2c(c1)c(=O)oc1cc(O)ccc12
EC50 [2]: > 55.7 µM (not active) | EC50 [3]: > 55.7 µM (not active)

N=c1ccn(Cc2ccccc2Cl)cc1
IC50 [4]: > 80 µM (inactive) | IC50 [5]: 3.42 µM (active) | IC50 [6]: 3.37 µM (active)

COc1ccc(NC(=O)CN(C)C(=O)C2(c3ccccc3)CCCC2)cc1
IC50 [4]: > 80 µM (inactive)

c1ccc(C(c2nnnn2Cc2ccco2)N2CCN(c3nc4ccccc4s3)CC2)cc1 (stereo not given)
EC50 [1]: 6.65 µM (active)

O=C(O)Cn1cnc2c(S)ncnc21
EC50 [2]: > 55.7 µM (not active) | EC50 [3]: > 55.7 µM (not active)

C=CCCC(=O)Nc1nc(C)c(-c2csc(Nc3ccc(Cl)cc3)n2)s1
AC50 [7]: 2.6 µM (active) | AC50 [8]: 7.3 µM (active)

COc1cc(/C=N\NC(=O)c2ccc(Cl)cc2)ccc1Oc1ccc([N+](=O)[O-])cn1
IC50 [9]: > 100 µM (inactive) | IC50 [10]: 9.22 µM (active)

CCCCNC(=O)c1sc(=S)n2c1[nH]c(=O)c1ccc(C(=O)NCCc3ccc(OC)c(OC)c3)cc12
IC50 (Hexokinase HKDC1): 35.7 µM (inactive)

COc1ccc(CCCc2nnc(SCC(=O)Nc3ccc(C)c(C)c3)o2)cc1
IC50 [11]: < 0.4 µM (not active) | IC50 [9]: > 100 µM (inactive) | IC50 [10]: 6.61 µM (active) | IC50 [12]: 2.18 µM (active) | IC50 [13]: 3.68 µM (active)
